In PMC11838108, “Screening and evaluation of novel DPP-IV inhibitory peptides in goat milk based on molecular docking and molecular dynamics simulation” (Food Chemistry: X, 2025):
Like-named read-outs stand apart in the source and are kept apart here. Values belong to the substance of their own block, whether it stands above or below them. Where no end group is shown, it is not given here.

Tests used:
DPP-IV [1] = molecular target: T1, DPP-IV (Homo sapiens, UniProt P27487); assay: DPP-IV inhibition by the peptides (Gly-Pro-pNA substrate); type: biochemical; details: Gly-Pro-pNA 0.2 mM, DPP-IV 0.0025 U/mL, 60 min; read-out: DPP-IV inhibitory activity IC50
Experimental: Peptides were prepared at various concentrations and transferred to a 96-well microplate containing Gly-Pro-pNA (0.2 mM). The microplates were then incubated for 5 min. Subsequently, DPP-IV (0.0025 U/mL) was added, followed by an additional incubation for 60 min. […] The peptides, Gly-Pro-pNA, and DPP-IV were then dissolved in Tris-HCl (0.1 M). Tris-HCl was used as the negative control with DPP-IV but without the peptides and as the blank control without the peptides or DPP-IV.

DPP-IV [2] = details: cited from earlier work
[3] = molecular target: angiotensin-converting enzyme (ACE); details: ref Chen, Yu, Wu, & He, 2022, read-out: ACE inhibitory IC50; cited from earlier work
[4] = Stability of peptides after in vitro simulated digestion (RP-HPLC); type: in vitro ADME; set-up: remaining at 2 min: dose or concentration left out as unconfirmed; details: for Oral-gastric digestion (stability of peptide): after oral and gastric phase; for Oral-gastric digestion (stability of peptide) / Oral-gastric-intestinal digestion (stability of peptide) / remaining at 2 min: RP-HPLC peak area; for Oral-gastric-intestinal digestion (stability of peptide): after oral, gastric and intestinal phase; for decrease of stability after intestinal digestion: relative to oral-gastric digestion; for remaining at 2 min: simulated salivary fluid (SSF) with salivary amylase, after oral phase, read-out: Oral digestion (stability of peptide)
Experimental: (§1) Based on the method described by Brodkorb et al. ([Brodkorb et al., 2019]), the following solutions were prepared: SSF, SGF, and SIF salt solutions, and salivary amylase, pepsin, and trypsin solutions.
Each peptide was dissolved at a concentration of 1 mg/mL, and 0.094 mL of SSF, 0.001 mL of CaCl2·2H2O (0.3 M), 0.025 mL of salivary amylase (75 U/mL), and 0.005 mL of H2O were sequentially added, for a total volume of 0.25 mL. The mixture was then incubated in a 37 °C incubator for 2 min.
Briefly, 0.25 mL of the oral digestion mixture was sequentially combined with 0.12 mL of SGF, 0.001 mL of CaCl2·2H2O (0.3 M), 0.048 mL of pepsin (2000 U/mL), 0.060 mL of SGF, 0.011 mL of H2O, and 0.010 mL of HCl (1 M), for a total volume of 0.5 mL. The mixture was then incubated in a 37 °C incubator for 2 h.
A 0.50-mL sample of the gastric digestion mixture was successively combined with 0.195 mL of SIF, 0.001 mL of CaCl2·2H2O (0.3 M), 0.125 mL of trypsin (100 U/mL), 0.100 mL of SIF, and 0.079 mL of H2O. The mixture was then incubated in a 37 °C incubator for 2 h at a pH of 7.0.
After oral, gastric, and intestinal digestion, the digestion mixture was filtered through a 0.22-μm sterile filter. The filtrate was stored at −20 °C for subsequent analysis.
The in vitro simulated digestion experiments of the peptides were conducted in accordance with the method described by Hao et al., with minor modifications ([Hao et al., 2020]). The stability of peptides post-digestion was assessed by RP-HPLC (CAP-CELL PAK C18 AQ S-5, 10 mm × 150 mm column, Shiseido, Tokyo, Japan) with a detection wavelength of 228 nm. The formula for determining the peptide stability was as follows: Stability of peptides%=Pa/Pb×100 where Pa represents the peak area of the digested sample, and Pb represents the peak area of the reference sample.

DPP-IV [5] = molecular target: T1, DPP-IV; assay: DPP-IV inhibitory activity of peptides after in vitro simulated digestion; type: biochemical; details: GL-6 at 130.68 μM, LY-5 at 179.52 μM; after oral-gastric-intestinal digestion
Experimental: The method outlined by Nongonierma et al. ([Nongonierma & FitzGerald, 2013]) was adapted for our study. Peptides were prepared at various concentrations and transferred to a 96-well microplate containing Gly-Pro-pNA (0.2 mM). The microplates were then incubated for 5 min. Subsequently, DPP-IV (0.0025 U/mL) was added, followed by an additional incubation for 60 min. The absorbance of the mixture was measured at 405 nm. The peptides, Gly-Pro-pNA, and DPP-IV were then dissolved in Tris-HCl (0.1 M). Tris-HCl was used as the negative control with DPP-IV but without the peptides and as the blank control without the peptides or DPP-IV. Sitagliptin was used as the positive control instead of the peptides. The formula for calculating the inhibitory activity was as follows: DPP−IVinhibitory activity%=Ac−As/Ac−Ab×100 where absorbance values for the control, sample, and blank groups were designated as Ac, As, and Ab, respectively.
as §1
Each peptide was dissolved at a concentration of 1 mg/mL, and 0.094 mL of SSF, 0.001 mL of CaCl2·2H2O (0.3 M), 0.025 mL of salivary amylase (75 U/mL), and 0.005 mL of H2O were sequentially added, for a total volume of 0.25 mL. […]

DPP-IV [6] = system: T2, DPP-IV; assay: DPP-IV inhibitory activity in Caco-2 cells (Gly-Pro-AMC substrate); type: cell-based; details: peptide 2 mg/mL (GPFPLL 3.11 mM, LPYPY 3.07 mM), 24 h
T2 construct: endogenous in cells; host or cells: Caco-2 cells (Haixing Biological Technology Co., Ltd.)
Experimental: Caco-2 cells were seeded on a black 96-well plate at a density of 2 × 10^4 cells per well. Subsequently, the cells were treated with sample solutions at various concentrations and then further incubated for 24 h. After incubating, the peptide solutions and medium were removed from the wells, and 100 μL of the Gly-Pro-AMC substrate (50 μM) was added to each well and incubated for 10 min at 37 °C.

Caco-2 cells = assay: Cytotoxicity assay (CCK-8); type: cell-based; details: 24 h, GL-6 0.195–3.11 mM, LY-5 0.193–3.07 mM
Experimental: A peptide cytotoxicity assay using Caco-2 cells was conducted based on the method outlined by Hao et al. with minor modifications ([Hao et al., 2020]). Initially, the cells were evenly seeded on a 96-well plate with 100 μL of 2 × 10^4 cells. After seeding, the plate was placed in a sterile and CO2-enriched incubator. After a 24-h incubation, the medium was removed, and the adherent cells were used for subsequent experiments. The peptides were dissolved in the basal medium (DMEM) and cells were treated with different concentrations of peptides. After a 24-h incubation period, 10 μL of CCK-8 was added to each well and incubated with the cells. The absorbance at 450 nm was recorded to determine cell viability.
The following formula was used to calculate cell viability, with cells cultured in the basal medium used as the control group for comparison: Cell viability%=Asample/Acontrol×100

[7] = set-up: method as in Yin et al., 2022; details: ref Yin et al., 2022; cited from earlier work

T1 sequence (P27487 whole entry): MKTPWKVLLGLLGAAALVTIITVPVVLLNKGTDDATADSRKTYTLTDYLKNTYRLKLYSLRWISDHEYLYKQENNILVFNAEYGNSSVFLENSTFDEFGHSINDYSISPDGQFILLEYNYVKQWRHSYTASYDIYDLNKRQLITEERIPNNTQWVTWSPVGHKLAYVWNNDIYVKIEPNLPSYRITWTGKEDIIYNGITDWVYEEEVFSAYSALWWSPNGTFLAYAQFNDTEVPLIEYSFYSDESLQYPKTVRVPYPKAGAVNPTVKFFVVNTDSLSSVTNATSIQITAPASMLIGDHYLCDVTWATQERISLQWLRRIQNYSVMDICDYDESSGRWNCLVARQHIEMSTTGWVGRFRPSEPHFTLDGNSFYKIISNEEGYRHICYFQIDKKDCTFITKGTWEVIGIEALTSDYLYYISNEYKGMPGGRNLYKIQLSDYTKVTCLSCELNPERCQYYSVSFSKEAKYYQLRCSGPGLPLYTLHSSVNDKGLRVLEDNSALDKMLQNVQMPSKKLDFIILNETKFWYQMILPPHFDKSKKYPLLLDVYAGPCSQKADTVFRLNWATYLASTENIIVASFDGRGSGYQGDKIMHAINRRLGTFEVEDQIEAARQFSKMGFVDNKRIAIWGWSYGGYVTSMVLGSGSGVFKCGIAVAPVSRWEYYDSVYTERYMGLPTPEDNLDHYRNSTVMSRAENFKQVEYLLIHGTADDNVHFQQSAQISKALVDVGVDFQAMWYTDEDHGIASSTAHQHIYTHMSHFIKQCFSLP

IC50 (DPP-IV [1]): 198 ± 14.9 µM
Substance: GPFPILN [GPFPILN]

Substance: LPFYPN
mode of inhibition of DPP-IV (DPP-IV [2]; coix seed protein peptide, ref Zhang et al., 2023): competitive inhibition

Substance: CDF
IC50 [3]: 192 µM

Substance: PPGIPYW
mode of inhibition of DPP-IV (DPP-IV [2]; chickpea protein peptide, ref Zan et al., 2023): competitive inhibition

IC50 (DPP-IV [1]): 180 ± 18.9 µM | Oral-gastric digestion (stability of peptide) [4]: 97.60% | Oral-gastric-intestinal digestion (stability of peptide) [4]: 81.99% | decrease of stability after intestinal digestion [4]: 15.61% | remaining at 2 min [4]: 99.5% | DPP-IV inhibitory rate after intestinal digestion (DPP-IV [5]): 39.37 % ± 0.90 | DPP-IV inhibition rate in Caco-2 cells (DPP-IV [6]): 65.98 % ± 2.87
Substance: LPYPY [LPYPY]
cytotoxicity to Caco-2 cells (Caco-2 cells): Neither GL-6 nor LY-5 exhibited significant cytotoxicity

IC50 (DPP-IV [1]): 131 ± 10.4 µM | Oral-gastric digestion (stability of peptide) [4]: 96.37% | Oral-gastric-intestinal digestion (stability of peptide) [4]: 69.48% | decrease of stability after intestinal digestion [4]: 26.89% | remaining at 2 min [4]: 99.6% | DPP-IV inhibitory rate after intestinal digestion (DPP-IV [5]): 31.90 % ± 1.80 | DPP-IV inhibition rate in Caco-2 cells (DPP-IV [6]): 46.53 % ± 3.48
Substance: GPFPLL [GPFPLL]
cytotoxicity to Caco-2 cells (Caco-2 cells): Neither GL-6 nor LY-5 exhibited significant cytotoxicity

Substance: LLSPP
stability after intestinal digestion [7]: 80%

Substance: IPYWTY
mode of inhibition of DPP-IV (DPP-IV [2]; pea protein peptide, ref Zhang, Zhu, et al., 2022): competitive inhibition

Substance: EACF
IC50 [3]: 41.1 µM

Substance: LPVGP
stability after intestinal digestion [7]: 80%
